Data set [1] is described as follows: pharmacokinetic studies in rats (oral suspension vs IV). It is filed as in vivo, Male Sprague-Dawley rats. The note with it: rat; for Cmax / AUC: plasma; for Cmax / AUC / Tmax: 30 mg/kg, oral gavage 30 mg/kg suspension; for % F (bioavailability): oral 30 mg/kg vs IV 15 mg/kg monohydrate. As for the experimental part: The bioavailability of the three forms was determined by comparison of suspension and intravenous administration in order to quantify the effect. […] Since the Tmax of the hemihydrate was much higher than the other two forms, it seems more compound was able to be absorbed overall even though over a somewhat longer time period, whereas the monohydrate and anhydrate were limited due to the solubility of the monohydrate form (FIG. 3).
Pharmacokinetic studies in rats were performed at Avastus Preclinical Services, Cambridge, Mass. All procedures were performed in accordance with the Guide for Care and Use of Laboratory Animals and were approved by the Avastus Institutional Animal Care and Use Committee. Male Sprague-Dawley rats weighing 200-300 g were dosed with mercaptopurine via oral gavage with a dosing volume of 5 mL/kg and a dose of 30 mg mercaptopurine form/kg or via IV administration at a dosing volume of 5 mL/kg and a dose of 15 mg mercaptopurine monohydrate/kg. Each group consisted of three rats, with one oral administration group for each form of mercaptopurine, and one IV administration group using the monohydrate form for reference. Blood samples were collected at time points of 15, 30, 60, 120, 240 minutes as well as 8 and 24 hours post dose. An additional time point at 5 minutes was taken for the IV administration group. Samples were centrifuged and the decanted plasma samples were stored at −80° C. until analysis.
The plasma samples were analyzed via LC-MS/MS using an Agilent 6410 mass spectrometer coupled with an Agilent 1200 HPLC and a CTC PAL chilled autosampler, all controlled by MassHunter software (Agilent). All plasma samples were crashed with three volumes of methanol containing an […] and centrifuged to remove precipitated protein before analysis. Samples were compared to a calibration curve prepared in rat blank plasma. Separation was performed on a C18 reverse phase HPLC column (Kinetex PFP, 2.6 μm, 2.1×50 mm) using an acetonitrile-water gradient system and peaks were analyzed by MS using ESI ionization in MRM mode. Peak area ratio to internal standard is used to interpolate plasma concentration for each sample from the calibration curve of peak area internal standard ratio to concentration. Pharmacokinetic parameters were fit using a custom WinNonlin analysis with PO dosing analysis. Area under the curve (AUC) for mercaptopurine was also calculated using the custom WinNonlin analysis. Cmax (maximum plasma concentration) and Tmax (time to reach maximum plasma concentration) were determined by visual inspection of the experimental data. The bioavailability (% F) was calculated from the following equation:
[formula] Frel was calculated with respect to the monohydrate form.

For data set [2] the following is noted: at 37° C.; background statement; cited from earlier work.
Data set [3] in a line: thermally-induced phase transitions by DSC and variable temperature PXRD. Type of data set: physicochemical. The note with it: for loss of crystallinity corresponding with a loss of water: variable temperature PXRD, conversion to anhydrate. As for the experimental part: DSC analysis and variable temperature PXRD were used to analyse the thermally-induced phase transitions of the compounds.
Variable temperature PXRD data were collected on a Rigaku SmartLab diffractometer using Cu-Kα radiation (λ=1.54187 Å) and operating at 40 kV and 44 mA. Samples were placed on a glass cover slip on top of a copper block that was heated at 2° C./min using a J-KEM Model 210 temperature controller. The setup was covered with a housing of Kapton to keep heat in but allow X-rays to penetrate. The spectrum was collected by scanning […] from 20 to 29° with a step size of 0.01° and a step speed of 0.1 seconds. Powder patterns were processed using Jade 8 XRD Pattern Processing, Identification & Quantification analysis software.^1
Thermograms of the monohydrate and hemihydrate forms were recorded on a TA Instruments Q20 DSC. […] Calibration of the instrument was performed using an indium standard. Thermograms were analyzed using TA Universal Analysis 2000, V 4.5A.
(DSC measures the heat that a sample takes up or gives off during a temperature scan.)

A further data set can be described thus: physchem. The note with it: water, 37 °C, thermodynamic from solid.
A short description of data set [4]: maximum solubility in water by turbidity measurements (CrystalBreeder). The note with it: at 37° C., Van't Hoff.
Description: (§1) Solubility measurements were taken using a CrystalBreeder system (Technobis). Known amounts of solid compound and water were added to 0.3 mL clear round bottom vials equipped with a stir bar. The vials were sealed with a Teflon coated rubber crimped caps to prevent evaporation of solvent. Vials were loaded into one of the independently heated aluminum reactor blocks and turbidity measurements were taken using an LED light source and detector to measure particles in solution. Samples were heated to 85° C. at a rate of 0.2° C./min, held at 85° C. for 30 minutes, and then cooled to 0° C. at a rate of 0.2° C./min. Clear points were calculated based on the temperature at which 100% transmittance of solution was reached. Van't Hoff plots of concentration vs. time were produced from the data using CrystalClear software (Technobis) to determine the solubility of each form at different temperatures.
Data set [5] is described as follows: stability to hydration: slurry conversion monitored by non-contact Raman probe. Type of data set: physicochemical. The note with it: aqueous slurry; for time to convert to the monohydrate form: full conversion. As to the method: In order to determine the stability to hydration, slurries of the anhydrate and hemihydrate forms were monitored using a non-contact Raman probe.
Raman spectra during slurry conversion were collected using a Kaiser Optical Systems Raman Rxn Microprobe equipped with a Multi-Rxn non-contact optic, 785 nm laser, and a multi-channel CCD detector. Spectra were collected with a range of 150-3425 cm^−1 and then analyzed using the HoloGRAMS 4.1 software package (Kaiser). Calibration was performed using a HoloLab Calibration Accessory and a cyclohexane standard.

Another data set deals with some cancer lines. The note with it: cited from earlier work.

SMILES strings stand for the structures. Like-named read-outs stand apart in the source and are kept apart here.

Here are results for 4 compounds from patent US10590137B2, “Mercaptopurine hemihydrate” (THE REGENTS OF THE UNIVERSITY OF MICHIGAN, priority 2016, dated 2020).

What is called Cmax is the highest concentration seen after dosing. What is called AUC is concentration integrated over time. The Tmax is the time at which the peak concentration occurs. The solubility is how much of the substance goes into solution per volume. A word on the IC50: it is the concentration that gives 50% inhibition.

Description for physchem: as §1

Consider `Sc1ncnc2nc[nH]c12` [Monohydrate, mercaptopurine monohydrate], for which the highest concentration (Cmax) in data set [1] (male, Sprague-Dawley, po, read-out: Cmax) was 230 ± 50 ng/mL. Besides, in data set [1] (monohydrate), the “% F (bioavailability)” value is listed as 1.4%, the AUC was found to be 210 ± 60 ng·h/mL and the Tmax worked out at 49.8 ± 17.4 min. In addition, the water solubility in data set [2] was 249 µg/mL. For the same compound, in data set [3] (open DSC pan), the “Tmax of merged endothermic event (water loss and loss of crystallinity)” value is 177 °C. In data set [3] (sealed DSC pan), the “loss of crystallinity event” value was around 190 °C and the water loss event is around 140 °C. Further, in data set [3] (monohydrate), the “loss of crystallinity corresponding with a loss of water” value is around 160 °C. Moreover, in the data set “physchem”, the solubility was found to be 249 µg/mL.

As to `Sc1ncnc2nc[nH]c12` [Hemihydrate, mercaptopurine hemihydrate], the “average solubility in water” value in data set [4] (hemihydrate) is 390 µg/mL. In addition, in data set [1] (hemihydrate), the “% F (bioavailability)” value stood at 3.8%, the exposure (AUC) was 570 ± 120 ng·h/mL, the Cmax worked out at 280 ± 110 ng/mL and the Tmax was 100 ± 34.8 min. Moreover, the “dehydration temperature (water loss, endothermic event)” value in data set [3] (DSC / variable temperature PXRD) turned out to be 240 °C. The “loss of crystallinity corresponding with a loss of water” value in data set [3] (hemihydrate) is “does not show any loss of crystallinity”. Further, in data set [5] (hemihydrate), the “time to convert to the monohydrate form” value was “approximately 70 hours”. The “time at which conversion to the monohydrate begins” value in data set [5] (onset) was “approximately 5 hours”.

`S=c1[nH]cnc2nc[nH]c12` [Mercaptopurine]: in the data set with some cancer lines, the IC50 is 500 nM.

Consider `Sc1ncnc2nc[nH]c12` [Anhydrate, mercaptopurine], for which, in data set [4], the “average solubility in water” value amounted to 400 µg/mL. Moreover, in data set [1], the “% F (bioavailability)” value is recorded as 2.9%, the AUC was 430 ± 30 ng·h/mL, the Cmax worked out at 260 ± 10 ng/mL and the Tmax came out at 49.8 ± 17.4 min. The “time to convert to the monohydrate form” value in data set [5] is 2 to 5 h.
